From US12371454B2, “Cyclic peptide compound having Kras inhibitory action” (priority 2019, dated 2025)
Starred links: 1 amine or outer side, 2 acyl side, 3 side chain; linkers in the order of their positions; H or OH if unused. Positions of bridges follow the written chain, without caps; N, C: chain ends. Non-standard residues stand in square brackets, D forms with d. Residues, ends and D or L forms follow the SMILES beside them. *: point of attachment. hPhe(3-Cl-4-CF3) = N[C@@H](CCc1ccc(C(F)(F)F)c(Cl)c1)C(=O)O; NMeAbu(4,4,4-F3) = CN[C@@H](CC(F)(F)F)C(=O)O; NMePhe(4-Me) = CN[C@@H](Cc1ccc(C)cc1)C(=O)O; NMedβ3hAla = C[C@H](CC(=O)[*:2])N(C)[*:1]; NMeAla(cPent) = CN[C@@H](CC1CCCC1)C(=O)O; NMeNva(5,5-F2) = CN[C@@H](CCC(F)F)C(=O)O; NMeGly(cPent) = CN[C@H](C(=O)O)C1CCCC1; NMeCha = CN[C@@H](CC1CCCCC1)C(=O)O; NMeChg = CN[C@H](C(=O)O)C1CCCCC1; NMeI = CC[C@H](C)[C@H](NC)C(=O)O; NMeD = CN[C@@H](CC(=O)O)C(=O)O; NMeL = CN[C@@H](CC(C)C)C(=O)O; NMeV = CN[C@H](C(=O)O)C(C)C; NMeS = CN[C@@H](CO)C(=O)O; NMeA = CN[C@@H](C)C(=O)O; Piperidide = C1CCN(*)CC1; Pyrrolidide = C1CCN(*)C1; Ac5c = NC1(C(=O)O)CCCC1; Aze = O=C(O)[C@@H]1CCN1; Aib = CC(C)(N)C(=O)O; Sar = CNCC(=O)O; Propyl = CCC*

Columns and labels:
[1] = target: T1, Kras and SOS1 (biotin-tagged human Kras loaded with GDP, His-tagged human SOS1) (Homo sapiens, UniProt P01116, G12D); assay: Protein-protein interaction inhibition between Kras and SOS1 (KrasGl2D-SOS PPI) using AlphaScreen; assay type: binding; conditions: AlphaScreen; biotin-tagged human Kras loaded with GDP, His-tagged human SOS1; read-out: KRAS G12D-SOS PPI IC50
T1 construct: made in house; host or cells: E. coli (stated for Kras only)
Procedure, shortened: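 Energy transfer from nickel-chelate donor beads bound to His-SOS1 to streptavidin acceptor beads bound to biotin-Kras, expressed in E. coli and loaded with GDP after purification, was monitored. Donors were excited at 680 nm; singlet oxygen reaching acceptors gave emission read at 520-620 nm.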

[2] = system: Human pancreatic cancer cell line AsPC-1; assay: Measurement of AsPC-1 cell growth inhibition (AsPC-1 CGI); assay type: cell-based; conditions: 96 h
Procedure, shortened: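 AsPC-1 cells in 15% FBS RPMI-1640 were exposed to test compound for 96 hours at 37° C, with CellTiter-Glo as endpoint.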

T1 sequence (P01116 1-188 isoform P01116-2 G12D): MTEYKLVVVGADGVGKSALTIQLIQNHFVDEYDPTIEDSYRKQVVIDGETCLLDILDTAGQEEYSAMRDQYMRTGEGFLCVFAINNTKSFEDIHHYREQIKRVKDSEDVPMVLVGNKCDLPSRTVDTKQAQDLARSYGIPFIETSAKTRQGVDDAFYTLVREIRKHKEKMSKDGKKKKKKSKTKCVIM

SMILES | IC50 [1] | IC50 [2]
CC[C@H](C)[C@@H]1NC(=O)[C@H](CC(C)C)N(C)C(=O)C[C@@H](C(=O)N2CCCC2)N(C)C(=O)[C@H](C(C)C)N(C)C(=O)C2(CCCC2)NC(=O)[C@@H]2CCCN2C(=O)[C@H](CCc2ccc(C(F)(F)F)c(Cl)c2)NC(=O)CN(C)C(=O)[C@H](CC2CCCCC2)N(C)C(=O)[C@@H]2CCN2C(=O)[C@H](C)N(C)C1=O [Compound 1656] ([NMeL]I[NMeA][Aze][NMeCha][Sar][hPhe(3-Cl-4-CF3)]P[Ac5c][NMeV][NMeD]-Pyrrolidide; lactam N-11) | 1.4 nM | 100 to 500 nM
CC[C@H](C)[C@@H]1NC(=O)[C@H](CC(C)C)N(C)C(=O)C[C@@H](C(=O)N2CCCC2)N(C)C(=O)[C@H](C2CCCCC2)N(C)C(=O)C2(CCCC2)NC(=O)[C@@H]2CCCN2C(=O)[C@H](CCc2ccc(C(F)(F)F)c(Cl)c2)NC(=O)CN(C)C(=O)[C@H](Cc2ccc(C)cc2)N(C)C(=O)CN(C)C(=O)CN(C)C1=O [Compound 1658] ([NMeL]I[Sar][Sar][NMePhe(4-Me)][Sar][hPhe(3-Cl-4-CF3)]P[Ac5c][NMeChg][NMeD]-Pyrrolidide; lactam N-11) | 0.55 nM | 20 to 50 nM
CC[C@H](C)[C@@H]1NC(=O)[C@H](CC2CCCC2)N(C)C(=O)C[C@@H](C(=O)N2CCCCC2)N(C)C(=O)[C@H](C2CCCCC2)N(C)C(=O)C2(CCCC2)NC(=O)[C@@H]2CCCN2C(=O)[C@H](CCc2ccc(C(F)(F)F)c(Cl)c2)NC(=O)CN(C)C(=O)[C@H](CC2CCCCC2)N(C)C(=O)CN(C)C(=O)CN(C)C1=O [Compound 1663] ([NMeAla(cPent)]I[Sar][Sar][NMeCha][Sar][hPhe(3-Cl-4-CF3)]P[Ac5c][NMeChg][NMeD]-Piperidide; lactam N-11) | 1.6 nM | 100 to 500 nM
CCCOC[C@H]1C(=O)N[C@@H]([C@@H](C)CC)C(=O)N(C)CC(=O)N(C)CC(=O)N(C)[C@@H](CC2CCCCC2)C(=O)N(C)CC(=O)N[C@@H](CCc2ccc(C(F)(F)F)c(Cl)c2)C(=O)N2CCC[C@H]2C(=O)NC2(CCCC2)C(=O)N(C)[C@@H](C2CCCCC2)C(=O)N(C)[C@H](C(=O)N2CCCCC2)CC(=O)N1C [Compound 1668] ([NMeS](Propyl)I[Sar][Sar][NMeCha][Sar][hPhe(3-Cl-4-CF3)]P[Ac5c][NMeChg][NMeD]-Piperidide; lactam N-11) | 0.85 nM | 50 to 100 nM
CC[C@H](C)[C@@H]1NC(=O)[C@H](CC(C)C)N(C)C(=O)C[C@@H](C(=O)N2CCCCC2)N(C)C(=O)[C@H](C2CCCCC2)N(C)C(=O)C2(CCCC2)NC(=O)[C@@H]2CCCN2C(=O)[C@H](CCc2ccc(C(F)(F)F)c(Cl)c2)NC(=O)CN(C)C(=O)[C@H](C2CCCC2)N(C)C(=O)CN(C)C(=O)CN(C)C1=O [Compound 1669] ([NMeL]I[Sar][Sar][NMeGly(cPent)][Sar][hPhe(3-Cl-4-CF3)]P[Ac5c][NMeChg][NMeD]-Piperidide; lactam N-11) | 1.8 nM | 100 to 500 nM
CC[C@H](C)[C@@H]1NC(=O)[C@H]([C@@H](C)CC)N(C)C(=O)C[C@@H](C(=O)N2CCCCC2)N(C)C(=O)[C@H](C2CCCCC2)N(C)C(=O)C2(CCCC2)NC(=O)[C@@H]2CCCN2C(=O)[C@H](CCc2ccc(C(F)(F)F)c(Cl)c2)NC(=O)CN(C)C(=O)[C@H](CC2CCCCC2)N(C)C(=O)CN(C)C(=O)CN(C)C1=O [Compound 1671] ([NMeI]I[Sar][Sar][NMeCha][Sar][hPhe(3-Cl-4-CF3)]P[Ac5c][NMeChg][NMeD]-Piperidide; lactam N-11) | 1.1 nM | 50 to 100 nM
CC[C@H](C)[C@@H]1NC(=O)[C@H](CC(C)C)N(C)C(=O)C[C@@H](C)N(C)C(=O)[C@H](C2CCCCC2)N(C)C(=O)C2(CCCC2)NC(=O)[C@@H]2CCCN2C(=O)[C@H](CCc2ccc(C(F)(F)F)c(Cl)c2)NC(=O)CN(C)C(=O)[C@H](Cc2ccc(C)cc2)N(C)C(=O)[C@@H]2CCN2C(=O)[C@H](C)N(C)C1=O [Compound 1673] (cyclo([Ac5c][NMeChg][NMedβ3hAla][NMeL]I[NMeA][Aze][NMePhe(4-Me)][Sar][hPhe(3-Cl-4-CF3)]P)) | 5.4 nM | 100 to 500 nM
CC[C@H](C)[C@@H]1NC(=O)[C@H](CC(C)C)N(C)C(=O)C[C@@H](C(=O)N2CCCCC2)N(C)C(=O)[C@H](C2CCCCC2)N(C)C(=O)C(C)(C)NC(=O)[C@@H]2CCCN2C(=O)[C@H](CCc2ccc(C(F)(F)F)c(Cl)c2)NC(=O)CN(C)C(=O)[C@H](CC2CCCCC2)N(C)C(=O)CN(C)C(=O)CN(C)C1=O [Compound 1680] ([NMeL]I[Sar][Sar][NMeCha][Sar][hPhe(3-Cl-4-CF3)]P[Aib][NMeChg][NMeD]-Piperidide; lactam N-11) | 0.61 nM | 50 to 100 nM
CC[C@H](C)[C@@H]1NC(=O)[C@H](CC(C)C)N(C)C(=O)C[C@@H](C)N(C)C(=O)[C@H](C2CCCCC2)N(C)C(=O)C2(CCCC2)NC(=O)[C@@H]2CCCN2C(=O)[C@H](CCc2ccc(C(F)(F)F)c(Cl)c2)NC(=O)CN(C)C(=O)[C@H](Cc2ccc(C)cc2)N(C)C(=O)CN(C)C(=O)CN(C)C1=O [Compound 1682] (cyclo([Ac5c][NMeChg][NMedβ3hAla][NMeL]I[Sar][Sar][NMePhe(4-Me)][Sar][hPhe(3-Cl-4-CF3)]P)) | 2.4 nM | 100 to 500 nM
CC[C@H](C)[C@@H]1NC(=O)[C@H](CC(C)C)N(C)C(=O)C[C@@H](C(=O)N2CCCCC2)N(C)C(=O)[C@H](C(C)C)N(C)C(=O)C2(CCCC2)NC(=O)[C@@H]2CCCN2C(=O)[C@H](CCc2ccc(C(F)(F)F)c(Cl)c2)NC(=O)CN(C)C(=O)[C@H]([C@@H](C)CC)N(C)C(=O)[C@@H]2CCN2C(=O)[C@H](C)N(C)C1=O [Compound 1684] ([NMeL]I[NMeA][Aze][NMeI][Sar][hPhe(3-Cl-4-CF3)]P[Ac5c][NMeV][NMeD]-Piperidide; lactam N-11) | 4.3 nM | 100 to 500 nM
CC[C@H](C)[C@@H]1NC(=O)[C@H](CC(C)C)N(C)C(=O)C[C@@H](C(=O)N2CCCCC2)N(C)C(=O)[C@H](C2CCCCC2)N(C)C(=O)C2(CCCC2)NC(=O)[C@@H]2CCCN2C(=O)[C@H](CCc2ccc(C(F)(F)F)c(Cl)c2)NC(=O)CN(C)C(=O)[C@H]([C@@H](C)CC)N(C)C(=O)CN(C)C(=O)CN(C)C1=O [Compound 1686] ([NMeL]I[Sar][Sar][NMeI][Sar][hPhe(3-Cl-4-CF3)]P[Ac5c][NMeChg][NMeD]-Piperidide; lactam N-11) | 1.5 nM | 100 to 500 nM
CC[C@H](C)[C@@H]1NC(=O)[C@H](CC(C)C)N(C)C(=O)C[C@@H](C(=O)N2CCCCC2)N(C)C(=O)[C@H](C2CCCCC2)N(C)C(=O)C2(CCCC2)NC(=O)[C@@H]2CCCN2C(=O)[C@H](CCc2ccc(C(F)(F)F)c(Cl)c2)NC(=O)CN(C)C(=O)[C@H](CC2CCCC2)N(C)C(=O)CN(C)C(=O)CN(C)C1=O [Compound 1689] ([NMeL]I[Sar][Sar][NMeAla(cPent)][Sar][hPhe(3-Cl-4-CF3)]P[Ac5c][NMeChg][NMeD]-Piperidide; lactam N-11) | 1.1 nM | 50 to 100 nM
CC[C@H](C)[C@@H]1NC(=O)[C@H](CC(C)C)N(C)C(=O)C[C@@H](C)N(C)C(=O)[C@H](C2CCCC2)N(C)C(=O)C2(CCCC2)NC(=O)[C@@H]2CCCN2C(=O)[C@H](CCc2ccc(C(F)(F)F)c(Cl)c2)NC(=O)CN(C)C(=O)[C@H](Cc2ccc(C)cc2)N(C)C(=O)CN(C)C(=O)CN(C)C1=O [Compound 1694] (cyclo([Ac5c][NMeGly(cPent)][NMedβ3hAla][NMeL]I[Sar][Sar][NMePhe(4-Me)][Sar][hPhe(3-Cl-4-CF3)]P)) | 0.55 nM | 20 to 50 nM
CC[C@H](C)[C@@H]1NC(=O)[C@H](C)N(C)C(=O)C[C@@H](C(=O)N2CCCCC2)N(C)C(=O)[C@H](C2CCCCC2)N(C)C(=O)C2(CCCC2)NC(=O)[C@@H]2CCCN2C(=O)[C@H](CCc2ccc(C(F)(F)F)c(Cl)c2)NC(=O)CN(C)C(=O)[C@H](CC2CCCCC2)N(C)C(=O)CN(C)C(=O)CN(C)C1=O [Compound 1696] ([NMeA]I[Sar][Sar][NMeCha][Sar][hPhe(3-Cl-4-CF3)]P[Ac5c][NMeChg][NMeD]-Piperidide; lactam N-11) | 0.57 nM | 50 to 100 nM
CC[C@H](C)[C@@H]1NC(=O)[C@H](CC(C)C)N(C)C(=O)C[C@@H](C(=O)N2CCCC2)N(C)C(=O)[C@H](C(C)C)N(C)C(=O)C2(CCCC2)NC(=O)[C@@H]2CCCN2C(=O)[C@H](CCc2ccc(C(F)(F)F)c(Cl)c2)NC(=O)CN(C)C(=O)[C@H](CC2CCCC2)N(C)C(=O)CN(C)C(=O)CN(C)C1=O [Compound 1699] ([NMeL]I[Sar][Sar][NMeAla(cPent)][Sar][hPhe(3-Cl-4-CF3)]P[Ac5c][NMeV][NMeD]-Pyrrolidide; lactam N-11) | 1.1 nM | 100 to 500 nM
CC[C@H](C)[C@@H]1NC(=O)[C@H](CCC(F)F)N(C)C(=O)C[C@@H](C(=O)N2CCCCC2)N(C)C(=O)[C@H](C2CCCCC2)N(C)C(=O)C2(CCCC2)NC(=O)[C@@H]2CCCN2C(=O)[C@H](CCc2ccc(C(F)(F)F)c(Cl)c2)NC(=O)CN(C)C(=O)[C@H](CC2CCCCC2)N(C)C(=O)CN(C)C(=O)CN(C)C1=O [Compound 1700] ([NMeNva(5,5-F2)]I[Sar][Sar][NMeCha][Sar][hPhe(3-Cl-4-CF3)]P[Ac5c][NMeChg][NMeD]-Piperidide; lactam N-11) | 0.66 nM | 20 to 50 nM
CC[C@H](C)[C@@H]1NC(=O)[C@H](CC(F)(F)F)N(C)C(=O)C[C@@H](C(=O)N2CCCCC2)N(C)C(=O)[C@H](C2CCCCC2)N(C)C(=O)C2(CCCC2)NC(=O)[C@@H]2CCCN2C(=O)[C@H](CCc2ccc(C(F)(F)F)c(Cl)c2)NC(=O)CN(C)C(=O)[C@H](CC2CCCCC2)N(C)C(=O)CN(C)C(=O)CN(C)C1=O [Compound 1701] ([NMeAbu(4,4,4-F3)]I[Sar][Sar][NMeCha][Sar][hPhe(3-Cl-4-CF3)]P[Ac5c][NMeChg][NMeD]-Piperidide; lactam N-11) | 0.75 nM | 20 to 50 nM
